Patent publication US20110236431A1, “TREATMENT OF ACUTE MYOCARDIAL INFARCTION (AMI) USING ENCAPSULATED CELLS ENCODING AND SECRETING GLP-1 PEPTIDES OR ANALOGS THEREOF” (BIOCOMPATIBLES UK LTD., priority 2008, published 2011)
“Also recorded” adds a separate entry of the source.

Assays:
[1] = system: patients with AMI and severe systolic dysfunction; settings: GLP-1 infusion added to standard therapy; cited from earlier work
DPP-IV = DPP-IV (Homo sapiens, UniProt P27487); test: In vitro plasma stability of GLP-1 peptides secreted from human cells; settings: cell culture supernatant, human lymphocyte enriched plasma, 37° C., 3 or additionally 6 and 9 hours
Rin-5F cells = test: Anti-apoptotic efficacy, cycloheximid-induced apoptosis; type: cell-based, rat; settings: 24 hours
Protocol: 40.000 Rin-5F cells were seeded per 96 well and cultivated for 2 days in RPMI supplemented with 1% L-Glutamin and 10% fetal calf serum. […] After 24 hours cell viability is quantified using AlamarBlue.

Sequence of DPP-IV (P27487 whole entry): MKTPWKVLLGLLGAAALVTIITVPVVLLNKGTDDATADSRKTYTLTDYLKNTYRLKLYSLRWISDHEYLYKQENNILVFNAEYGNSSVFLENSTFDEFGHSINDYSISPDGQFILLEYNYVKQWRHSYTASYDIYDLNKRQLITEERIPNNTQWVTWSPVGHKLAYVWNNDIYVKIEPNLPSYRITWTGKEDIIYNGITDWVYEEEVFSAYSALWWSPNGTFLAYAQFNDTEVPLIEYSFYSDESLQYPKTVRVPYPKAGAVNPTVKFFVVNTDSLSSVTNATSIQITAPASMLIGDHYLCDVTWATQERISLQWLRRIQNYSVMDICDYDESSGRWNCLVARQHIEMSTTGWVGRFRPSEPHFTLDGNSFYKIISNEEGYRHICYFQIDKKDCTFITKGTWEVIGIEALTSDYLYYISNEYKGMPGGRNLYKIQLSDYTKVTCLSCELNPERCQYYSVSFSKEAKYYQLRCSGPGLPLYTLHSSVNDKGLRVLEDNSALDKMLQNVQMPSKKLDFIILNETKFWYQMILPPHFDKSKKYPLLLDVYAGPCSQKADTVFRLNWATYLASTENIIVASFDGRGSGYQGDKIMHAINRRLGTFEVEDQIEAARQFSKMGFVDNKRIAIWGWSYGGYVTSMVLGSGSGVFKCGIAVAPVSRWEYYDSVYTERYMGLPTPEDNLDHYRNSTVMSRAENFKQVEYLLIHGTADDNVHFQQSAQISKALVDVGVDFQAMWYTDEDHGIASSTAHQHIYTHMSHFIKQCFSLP

Glucagon Like Peptide-1 (HAEGTFTSDVSSYLEGQAAKEFIAWLVKGRG) [GLP-1, naturally occurring incretin, infused in literature studies]
regional and global LV function [1]: improved regional and global LV function

GLP-1(7-37)-IP2-extended with 11 AA [construct #317]
stability to DPP-IV degradation in plasma (active GLP-1 ELISA) (DPP-IV): more resistant to degradation

GLP-1(7-37)-IP2-GLP-1(7-37) [CM1]
cell viability (Rin-5F cells; CHX 10 μg/ml and 100 μg/ml, different concentrations of CM1): significant (p<0.01) increase of cell viability
anti-apoptotic effect (cell viability, AlamarBlue) (Rin-5F cells; cycloheximid, serum-free, 1 nM CM1, p<0.01): significant anti-apoptotic effect

GLP1(7-37)-IP2-GLP1(7-37) [construct #217]
stability to DPP-IV degradation in plasma (active GLP-1 ELISA) (DPP-IV): more resistant to degradation; also recorded: nearly fully stabilized to DPP-IV degradation
